Tests used:
Slc:ICR mice [1] = assay: Spontaneous alternation task test (Y-maze), evaluation of cognitive function in NAC61-95 α-synucleinopathy model; type: in vivo; conditions: NAC61-95-treated mice
Method: (§1) By reference to articles (Science, 338, p. 949 (2012); Behavioral Brain Research, 208, p. 274 (2010)), an animal model capable of confirming a therapeutic and/or prophylactic effect on α-synucleinopathy (for example, Lewy body disease, the Lewy body disease includes cognitive impairment in Parkinson's disease, diffuse Lewy body disease, dementia with Lewy bodies, movement disorder associated with Lewy body disease and the like) was prepared as follows.
(§2) The cognitive function was evaluated using a spontaneous alternation task. The spontaneous alternation task is known as an evaluation system of cognitive function utilizing properties of an animal to willingly explore a novel environment (Neuroscience and Biobehavioral Reviews 28, p. 497 (2004)). That is, if the animal remembers the arm into which it entered previously in an exploration in a Y-maze apparatus, the behavior of spontaneous entry into a different arm was expressed by an alternation behavior rate, and used as an index of cognitive function. The motor function was evaluated by analyzing gait function under natural walk conditions using a gait function/automatic gait analysis system.
(§3) NAC61-95 (custom, Sigma) was dissolved in PBS to prepare 4 μg/μL NAC61-95 solution.
Under pentobarbital (Somnopentyl, Kyoritsuseiyaku) (50 mg/kg, i.p.) anesthesia, 5 μL of NAC61-95 solution was injected using a Hamilton syringe (10 μL) equipped with a double needle (27G, needle length 3 mm) into the right lateral cerebral ventricle of Slc:ICR mice (male, Japan SLC) over about 1 minute, and stood for 1 minute to induce cognitive impairment and/or movement disorder. […]
Mice were brought into the experiment room from the previous day of test for habituation. […] Entry of all four limbs of a mouse into one arm was defined as entry into the arm, and the order of entry of the mouse into the arm was recorded. A behavior of successive entry into all three different arms was defined as spontaneous alternation behavior, and the percentage of alternation behavior was calculated by the following calculation formula. […]

Slc:ICR mice [2] = assay: Gait test (CatWalk XT), evaluation of motor function in NAC61-95 α-synucleinopathy model; type: in vivo; conditions: NAC61-95-treated mice
Method: as §1, §2, §3
Under pentobarbital (Somnopentyl, Kyoritsuseiyaku) (50 mg/kg, i.p.) anesthesia, 5 μL of NAC61-95 solution was injected using a Hamilton syringe (10 μL) equipped with a double needle (27G, needle length 3 mm) into the right lateral cerebral ventricle of Slc:ICR mice (male, Japan SLC) over about 1 minute, and stood for 1 minute to induce cognitive impairment and/or movement disorder.
As for a sham treatment group, under pentobarbital anesthesia, 5 μL of PBS was injected using a Hamilton syringe equipped with a double needle into the right lateral cerebral ventricle of Slc:ICR mice over about 1 minute, and stood for 1 minute.
A gait function/automatic gait analysis system (CatWalk XT, ver.9.1, Noldus) was used. The system consisted of a walkway with pressure-sensitive luminescent glass and a light source, a luminescent ceiling, a highly sensitive high-speed camera and an analysis software, and the gait was analyzed by digitizing the brightness of the light emitted by the pressure-sensitive luminescent glass in response to the pressure. The gait data was automatically recorded and analyzed by the analysis software only when a mouse moved straight forward without stopping in the predetermined area on the walkway.
The mice were brought into the experiment room with light off and habituated for not less than 1 hour. A mouse was placed in the apparatus, and allowed to walk freely until 6 running data were obtained for each individual. The first three running data amenable to analyze were taken up, and their mean was calculated.
At 60 minutes before the test, istradefylline (suspended in 0.5 w/v % aqueous MC solution, and prepared to 0.5 mL per 100 g body weight of a mouse on the administration day) was orally administered at a dose of 1.0 mg/kg, or a vehicle (0.5 w/v % aqueous MC solution) free of the test compound was orally administered at 0.5 mL per 100 g body weight of a mouse on the administration day.

[3] = 1.0 mg/kg orally 60 minutes before the test, mean±standard error

CCn1c(=O)c2c(nc(/C=C/c3ccc(OC)c(OC)c3)n2C)n(CC)c1=O [istradefylline]
cognitive impairment by NAC61-95 treatment (Slc:ICR mice [1]; 1.0 mg/kg orally): improved
alternation behavior (%) (Slc:ICR mice [1]; [3]): 66.4 ± 1.4%
alternation behavior as compared to the vehicle administration group (Slc:ICR mice [1]; 1.0 mg/kg orally, p<0.05, Aspin-Welch test): significantly high
gait pattern (mean) AA (Slc:ICR mice [2]; AA: right forepaw→right hindpaw→left forepaw→left hindpaw, 1.0 mg/kg orally, mean±standard error): 4.3 ± 2.8
gait pattern (mean) AB (Slc:ICR mice [2]; AB: right forepaw→left hindpaw→left forepaw→right hindpaw, 1.0 mg/kg orally, mean±standard error): 76.7 ± 7.1
gait pattern (mean) CA (Slc:ICR mice [2]; CA: right forepaw→left forepaw→right hindpaw→left hindpaw, 1.0 mg/kg orally, mean±standard error): 10.3 ± 3.6
gait pattern (mean) CB (Slc:ICR mice [2]; CB: right forepaw→left hindpaw→right hindpaw→left forepaw, 1.0 mg/kg orally, mean±standard error): 8.7 ± 4.3
change in gait pattern CB (Slc:ICR mice [2]; 1.0 mg/kg orally): decreased
improvement ratio, gait pattern CB (Slc:ICR mice [2]; 1.0 mg/kg orally): 100%
improvement ratio, maximum brightness ratio of the left hindpaw (Slc:ICR mice [2]; 1.0 mg/kg orally): 111%
movement disorder induced by NAC61-95 treatment (Slc:ICR mice [2]; 1.0 mg/kg orally): improved
maximum brightness ratio, left forepaw (Slc:ICR mice [2]; [3]): 51.5 ± 1.8
maximum brightness ratio, left hindpaw (Slc:ICR mice [2]; [3]): 65.3 ± 1.7
maximum brightness ratio, right forepaw (Slc:ICR mice [2]; [3]): 52.5 ± 2.4
maximum brightness ratio, right hindpaw (Slc:ICR mice [2]; [3]): 61.9 ± 2.4
print area, left forepaw (Slc:ICR mice [2]; [3]): 0.35 ± 0.02
print area, left hindpaw (Slc:ICR mice [2]; [3]): 0.38 ± 0.04
print area, right forepaw (Slc:ICR mice [2]; [3]): 0.33 ± 0.03
print area, right hindpaw (Slc:ICR mice [2]; [3]): 0.38 ± 0.04
change in the maximum brightness ratio of the left hindpaw (Slc:ICR mice [2]; 1.0 mg/kg orally, p<0.05, Student's t-test): significant increase
gait pattern (median) AA (Slc:ICR mice [2]; median, 1.0 mg/kg orally): 0.0
gait pattern (median) AB (Slc:ICR mice [2]; median, 1.0 mg/kg orally): 84.6
gait pattern (median) CA (Slc:ICR mice [2]; median, 1.0 mg/kg orally): 6.7
gait pattern (median) CB (Slc:ICR mice [2]; median, 1.0 mg/kg orally): 0.0
